Data from patent US20240099998A1, “COMPOSITIONS AND METHODS FOR INDUCING DEFECATION” (priority 2021, published 2024).

Columns and labels:
[1] = system: rectal afferent terminals; settings: human subjects; cited from earlier work
[2] = system: anesthetized acute T9-transected SCI rat, rectal pressure; test: Rectal pressure recording in anesthetized acute spinal cord injured (SCI) rat; type: in vivo; settings: cotton ball suppository soaked in 50 uL of 0.2% solution, acute T9-transected SCI female rat
Protocol: For the acute SCI model, animals were anesthetized with urethane (1.0-1.4 g/kg subcutaneous injection), the skin and muscle on the dorsal side at the level of the thoracic vertebrae were incised, and the spinal cord was carefully exposed by a laminectomy and transected at T8-T10 spinal level. Gelfoam^R was placed at the incision site and the muscle and skin overlying the vertebrae were closed with wound clips. The spinal cord was transected at least 60 min before starting the experimental protocol.
For all rectal contractility studies, animals were anesthetized with urethane (1.0-1.4 g/kg subcutaneous injection). […]
Rectal Contractility: Rectal pressures were measured via a latex balloon catheter (length 1.5-4 cm) inserted (˜4 cm) into the distal rectal region. […] Parameters measured included peak rectal pressure response, duration of time above baseline activity (in the 1st 5 min after drug administration), area under the curve (measured during the 1st 5 min after drug administration) and the number of contractile events after vehicle and drug administration.
Methods: Capsaicin was administered to 2 anesthetized female rats instrumented for rectal pressure recording via a balloon catheter inserted into the rectum 2-4 cm from the anus. […] Top and bottom traces in FIG. 9 were recorded from individual female rats.

conscious dogs, colon = settings: intracolonic administration; cited from earlier work
[3] = system: conscious spinal intact rats, defecation; test: Defecation in conscious rats monitored in metabolism cages after intrarectal dosing; type: in vivo, rat
Protocol: Defecation in awake animals was monitored in metabolism cages. Animals were habituated to handling and the metabolism cages on 2-4 occasions prior to dosing and were then randomized to a treatment arm. Rats were weighed and placed into metabolism cages for 10 min prior to intrarectal administration of vehicle or TRPV1 agonist. The number of fecal pellets and timing of events were recorded by trained personnel that were blinded to treatment. Fecal weight was weighed at 20 min post dosing.
Defecation in conscious rats was monitored in metabolism cages. Rats were habituated to handling and the metabolism cages on 2-4 occasions before dosing, then randomized to the treatment arm. Rats were weighed and placed into metabolism cages for 10 min prior to receiving an intrarectal dose of vehicle or capsaicin. Since manual stimulation during intrarectal dosing in conscious rats can induce defecation, palpation of the distal rectum was performed to remove any fecal pellets located in the region of the anal sphincter. […] Once the anal sphincter had ceased contracting/relaxing (15-90 s) a fine catheter (22 G soft/flexible blunt tip catheter) was used to dose the vehicle or capsaicin, as this method produced little manual stimulation. Capsaicin was prepared as a 0.01, 0.1 or 1% solution (0.1, 1 or 10 mg/ml in tween-80/ethanol/saline (ratio of 10/10/80) or vehicle. Dose volumes were 0.1 mL and administered via the catheter inserted ˜1 inch through the anus into the rectum. The number of fecal pellets and timing of events were recorded by trained personnel blinded to the treatment. Fecal weight was recorded at 20 min post dosing.

[4] = system: anesthetized naïve (spinal intact) rats, rectal pressure; test: Rectal (colorectal) pressure recording via balloon catheter after intrarectal dosing in anesthetized spinal intact rats; type: in vivo, rat
Protocol: General: In vivo studies were performed in anesthetized, spinally intact rats (N=10). Adult male Sprague Dawley rats (Charles River, 250-300 g) were housed at an AAALAC approved facility in cages (2-3/cage) with free access to water and food in a colony room that was maintained on a 12 hr light/12 hr dark cycle 1-2 weeks before the experiment. Rats were anesthetized with urethane (1.2-1.4 g/kg subcutaneous injection). Surgical procedures were then performed with the addition of isoflurane anesthesia (0.05-1.5% in O2) as the full anesthetic effect of urethane takes about 1-2 hrs.
A catheter filled with heparinized saline (30 unit/ml) was inserted into the carotid artery and connected to a pressure transducer for measurement of blood pressure and heart rate. A catheter was inserted into the jugular vein for intravenous (i.v.) administration of drugs.
Colorectal Contractility: Colorectal pressures were measured via a latex balloon catheter (length 2-3 cm) inserted (˜3-4 cm) into the distal colorectal region. The catheter was connected to a pressure monitoring system. The pressure in the balloon catheter was slowly increase to 10-15 mmHg by infusing saline (0.2-0.5 ml total volume) and this pressure was maintained throughout the study. This allowed drug induced changes in colorectal pressure to be monitored. Parameters measured include peak colorectal pressure response, duration of time above baseline activity (in the 1st 5 min after drug administration), area under the curve (measured during the 1st 5 min after drug administration) and the number of contractile events after vehicle and drug administration.
Dosing: Intrarectal TRPV1 agonists were administered in a dose range of 0.01-2% wt/vol. Nonivamide, OEA, OLDA and capsaicin were dissolved in 95% ethanol at 20-100 mg/mL and then diluted to 0.01-2% with the vehicle (Tween-80:95% ethanol:saline in a ratio of 10:10:80) and administered intrarectally as a solution using a small gauge tube, or a solution soaked cotton wool plug, to mimic a suppository-like dosage form.
Methods: The TRPV1 receptor agonist nonivamide was administered to anesthetized spinal intact male rats (N=6) instrumented for rectal pressure recording via a balloon catheter inserted into the rectum 3-4 cm from the anus. A 0.1% solution (0.2 mL of a 1 mg/ml solution in Tween-80:ethanol:saline (ratio 10:10:80)) of nonivamide was administered via a 20 gauge feeding tube that was inserted ˜2 cm into the rectum. For comparison, vehicle (Tween-80:ethanol:saline in a ratio of 10:10:80) was administered using the same techniques.
Methods: The TRPV1 receptor agonist nonivamide was administered to anesthetized spinal intact male rats instrumented for rectal pressure recording via a balloon catheter inserted into the rectum 3-4 cm from the anus. A 1% solution (0.2 mL of a 10 mg/ml solution in Tween-80:ethanol:saline (ratio 10:10:80)) of nonivamide was administered via a 20 gauge feeding tube that was inserted 2-3 cm into the rectum.
Methods: Nonivamide was administered to a naive anesthetized male rat instrumented for rectal pressure recording via a balloon catheter inserted into the rectum 2-4 cm from the anus. To mimic a suppository dosage form, nonivamide (1%) was administered via a fluid-soaked small cotton wool plug. The cotton wool plug was placed into the anal canal at the distal rectum.
Methods: OAE (N=4) was administered to anesthetized naïve male rats (N=5) instrumented for rectal pressure recording via a balloon catheter inserted into the rectum 3-4 cm from the anus. OEA was administered as 0.01-0.2% solution (0.2 mL of a […] solution in Tween-80:95% ethanol:saline (ratio 10:10:80)) via a small cotton wool plug soaked in 0.2 mL of solution, to mimic a suppository dosage form, that was inserted into the rectum. For comparison, vehicle was administered to all rats using the same techniques. […]

[5] = intrarectal solution, conscious rats
[6] = 0.2% solution, 0.05-0.32 mL intrarectal
[7] = cotton ball suppository soaked in 50 uL of 0.2% solution, spinal intact naïve female rat
[8] = cotton wool plug (1% in FIG. 7A), intrarectal, N=3
[9] = 0.1% solution, 0.2 mL intrarectal
[10] = 1% solution, 0.2 mL intrarectal
[11] = 0.01-0.2% solution, cotton wool plug soaked in 0.2 mL, intrarectal
[12] = cotton wool plug soaked in 0.2 mL of 0.2% solution
[13] = 0.2%, cotton wool plug soaked in 0.2 mL, N=1

Q: With `COc1cc(CNC(=O)CCCC/C=C/C(C)C)ccc1O` [Capsaicin] as the molecule, how does the “reported sensations after intrarectal administration” value [1] read?
A: an urge to defecate

Q: What about the “duration of rectal pressure increase” value [2] of the same molecule?
A: < 5 min

Q: What about the “onset of rectal pressure increase” value [2] of the same molecule?
A: < 2 min

Q: What about the “effect on colon and defecation” value (conscious dogs, colon) of the same molecule?
A: initiate defecation

Q: What about the “number of fecal pellets expelled compared to vehicle” value ([3]; 1% solution, 0.1 mL intrarectal, 10 min after dosing, N=6, p<0.05) of the same molecule?
A: significantly increased

Q: And the “total weight of fecal pellets expelled compared to vehicle” value ([3]; 1% solution, 0.1 mL intrarectal, 20 min after dosing, N=6, p<0.05)?
A: significantly increased

Q: What about the “time to completion of defecation” value [3, 5] of the same molecule?
A: ≤ 10 min

Q: What about the time to defecation [3, 5] of the same molecule?
A: ≤ 5 min

Q: What about the “duration of rectal pressure increase” value [4, 6] of the same molecule?
A: 5 min

Q: And the “onset time of rectal pressure increase” value [4, 6]?
A: 1 to 2 min

Q: What about the “rats with transient rectal pressure increase” value ([4]; 0.2% solution, 0.05-0.32 mL intrarectal via PE50 tube, 4 males and 1 female) of the same molecule?
A: 5 of 5

Q: What about the peak colorectal pressure ([4]; 1% soaked cotton wool plug, FIG. 7A, example of one male rat) of the same molecule?
A: ~40 mmHg

Q: And the “duration of rectal pressure increase” value [4, 7]?
A: < 5 min

Q: And the “onset of rectal pressure increase” value [4, 7]?
A: < 2 min

Q: What about the “duration of increase in colorectal pressure” value [4, 8] of the same molecule?
A: < 5 min

Q: And the “onset of increase in colorectal pressure” value [4, 8]?
A: < 1 min

Q: Which “duration of rectal pressure increase” value [4, 9] does the source give for `CCCCCCCCC(=O)NCc1ccc(O)c(OC)c1` [Nonivamide] here?
A: 5 min

Q: And the “onset time of rectal pressure increase” value [4, 9]?
A: 1 to 2 min

Q: And the “rats with transient rectal pressure increase” value ([4]; 0.1% solution, 0.2 mL intrarectal via feeding tube, male rats)?
A: 6 of 6

Q: And the “duration of rectal pressure increase” value [4, 10]?
A: 5 to 10 min

Q: What about the “onset time of rectal pressure increase” value [4, 10] of the same molecule?
A: 1 to 2 min

Q: What about the “rectal response: expulsion of balloon catheter” value ([4]; cotton wool plug soaked in 0.2 mL of 1% solution) of the same molecule?
A: sufficient to expel the balloon catheter

Q: And the “onset of increase in rectal pressure” value ([4]; cotton wool plug soaked in 0.2 mL of 1% solution, 1 male rat)?
A: ≤ 1 min

Q: What does the source list for `CCCCCCCC/C=C\CCCCCCCC(=O)NCCO` [OEA, Oleoylethanolamide]?
A: duration of rectal pressure increase [4, 11]: 5 to 10 min; onset time of rectal pressure increase [4, 11]: 0.5 to 2 min; defecation in anesthetized rat (FIG. 5) [4, 12]: defecation of fecal pellets; rectal response: expulsion of balloon catheter [4, 12]: sufficient to expel the balloon catheter

Q: With `CCCCCCCC/C=C\CCCCCCCC(=O)NCCc1ccc(O)c(O)c1` [OLDA, N-Oleoyldopamine] as the molecule, how does the “duration of rectal pressure increase” value [4, 13] read?
A: 5 min

Q: And the “onset time of rectal pressure increase” value [4, 13]?
A: 0.5 to 2 min

Q: And the “rectal response: expulsion of balloon catheter” value [4, 12]?
A: sufficient to expel the balloon catheter
